From patent US10670605B2, “Cysteine reactive probes and uses thereof” (The Scripps Research Institute, priority 2015, dated 2020) come the findings set out here.

The target in one test is IMPACT C195 (Q9P2X3) (Homo sapiens, UniProt Q9P2X3). Description: Competitive isoTOP-ABPP in situ. The note with it: fragment 4 at 100 μM, MDA-MB-231 cells. It counts as cell-based.
Test [1] has as its system intracellular GSH in primary human T cells. As to the kind of experiment: Quantification of cellular glutathione (GSH) levels. The note with it: DMF 50 μM 2 h; BSO 2.5 mM 4 h. It counts as cell-based. The method, then:
Primary human T cells (2.5 million cells/mL, 20 mL per condition) were treated as indicated, harvested by centrifugation (500 g, 8 min, 4° C.), and washed twice with PBS. To the cell pellet was added 75 μL of lysis buffer. […] Protein concentrations were adjusted to at least 5 mg/mL and the assay performed according to manufacturer's instructions (Sigma-Aldrich, CS 1020). Data represent mean±SE for two biological replicates.

The next test concerns primary human T cells. Description: T cell activation markers CD25 and CD69 (flow cytometry). It counts as cell-based. The method, then: 96-well plates were coated with anti-CD3 (1:200; BioXcell) and anti-CD28 (1:500; 302933; BioLegend) in PBS (100 μL/well) overnight at 4° C. The plates were then washed twice with PBS and to each well was added 500,000 primary T cells in 100 μL of RPMI supplemented with 10% FBS, glutamine, and Pen-Strep. Cells were then treated with 100 μL of media containing compound at the indicated concentrations (final well volume of 200 μL). Cells were left at 37° C. in a 5% CO2 incubator for the indicated periods of time and harvested by centrifugation (500 g, 8 min, 4° C.), followed by washing with PBS.
Flow cytometry analysis of cell surface antigens was performed with the following antibodies: Pacific Blue-conjugated anti-CD8 (1:25 dilution; clone RPA-T8; BD Biosciences), APC-conjugated anti-CD4 (1:25 dilution; clone RPA-T4; eBioscience), phycoerythrin-conjugated anti-CD25 (1:25 dilution; clone BC96; eBioscience or PC61; BioLegend (PKCθ studies)), FITC-conjugated anti-CD69 (1:25 dilution; clone FN50; eBioscience). All antibodies were diluted in 1% FBS in PBS, and 50 μL of the stain solution was added to each well. […] Flow cytometry acquisition was performed with BD FACSDivam-driven BD™ LSR II flow cytometer (Becton, Dickinson and Company). Data was then analyzed with FlowJo software (Treestar Inc.). Data represent mean±SE for four-five experiments per group.

A further test concerns the target T1, KDM4B C694 (O94953) (Homo sapiens, UniProt O94953).
T1 sequence (O94953 1-1096): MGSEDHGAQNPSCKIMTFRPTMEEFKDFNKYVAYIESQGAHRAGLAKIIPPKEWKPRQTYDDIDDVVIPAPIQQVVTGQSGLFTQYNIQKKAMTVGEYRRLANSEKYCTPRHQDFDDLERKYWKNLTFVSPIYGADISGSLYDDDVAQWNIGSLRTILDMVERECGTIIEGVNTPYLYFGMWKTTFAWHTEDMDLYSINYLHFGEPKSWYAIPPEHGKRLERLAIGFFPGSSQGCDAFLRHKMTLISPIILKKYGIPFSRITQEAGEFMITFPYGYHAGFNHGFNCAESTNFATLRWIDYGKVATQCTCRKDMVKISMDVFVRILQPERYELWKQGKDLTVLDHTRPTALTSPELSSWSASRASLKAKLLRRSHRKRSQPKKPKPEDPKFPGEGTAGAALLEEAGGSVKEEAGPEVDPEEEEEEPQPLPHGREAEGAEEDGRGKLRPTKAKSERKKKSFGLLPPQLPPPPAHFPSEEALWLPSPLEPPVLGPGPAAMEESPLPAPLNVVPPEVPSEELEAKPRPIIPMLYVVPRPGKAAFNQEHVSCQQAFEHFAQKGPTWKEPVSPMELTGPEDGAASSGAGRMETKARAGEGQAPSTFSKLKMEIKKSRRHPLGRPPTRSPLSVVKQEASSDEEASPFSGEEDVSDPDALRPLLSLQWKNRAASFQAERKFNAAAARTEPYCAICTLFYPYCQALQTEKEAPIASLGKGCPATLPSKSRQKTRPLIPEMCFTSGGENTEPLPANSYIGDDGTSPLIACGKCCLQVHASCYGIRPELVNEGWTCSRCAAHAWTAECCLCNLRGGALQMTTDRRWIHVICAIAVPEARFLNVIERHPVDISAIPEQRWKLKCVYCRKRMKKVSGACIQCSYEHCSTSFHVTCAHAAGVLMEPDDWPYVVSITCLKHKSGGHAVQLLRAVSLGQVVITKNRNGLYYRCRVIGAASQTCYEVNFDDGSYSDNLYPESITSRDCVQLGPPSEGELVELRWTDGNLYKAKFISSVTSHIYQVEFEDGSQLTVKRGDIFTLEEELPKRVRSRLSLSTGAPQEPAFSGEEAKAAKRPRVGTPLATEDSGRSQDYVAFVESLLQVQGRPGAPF
Description: Competitive isoTOP-ABPP in situ. It counts as cell-based. The settings on record: fragment 2 at 200 μM, MDA-MB-231 cells.

The target in a further test is SMAD2 C81 (Q15796) (Homo sapiens, UniProt Q15796). As to the kind of experiment: Competitive isoTOP-ABPP in situ. The note with it: fragment 2 at 200 μM, MDA-MB-231 cells. It counts as cell-based.
Sequence of SMAD2 C81 (Q15796) (Q15796 whole entry, the tested form may be a part): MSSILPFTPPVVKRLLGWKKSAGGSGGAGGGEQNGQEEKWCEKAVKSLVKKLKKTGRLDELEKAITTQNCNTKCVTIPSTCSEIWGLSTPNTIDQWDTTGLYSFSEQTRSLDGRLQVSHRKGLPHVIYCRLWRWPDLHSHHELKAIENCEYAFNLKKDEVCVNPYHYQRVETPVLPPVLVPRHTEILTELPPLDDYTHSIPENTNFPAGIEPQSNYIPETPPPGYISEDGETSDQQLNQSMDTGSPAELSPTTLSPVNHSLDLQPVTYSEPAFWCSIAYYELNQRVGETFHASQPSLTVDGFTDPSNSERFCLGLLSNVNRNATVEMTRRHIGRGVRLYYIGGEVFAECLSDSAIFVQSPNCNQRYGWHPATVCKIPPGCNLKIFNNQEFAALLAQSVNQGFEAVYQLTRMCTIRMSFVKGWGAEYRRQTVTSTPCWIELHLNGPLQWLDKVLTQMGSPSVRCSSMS
A further test concerns the target T2, PRMT1 (Homo sapiens, UniProt Q99873).
T2 construct: Full length PRMT1 subcloned into pET45b (+) (Novagen) was previously generated by the Cravatt lab; inferred from Ni-NTA purification and the pET45b vector; made in house; host or cells: E. coli BL21(DE3)
Description: PRMT1 in vitro methylation assay (histone 4, 3H-SAM). It counts as biochemical. The note with it: pre-treatment with fragment 1 h. The method, then: PRMT1 assays were conducted as described in Weerapana et al. Nature 468:790-795 (2010). Recombinant human PRMT1 (0.85 μM, wild type or C101S mutant) in 25 μL methylation buffer (20 mM Tris, pH 8.0, 200 mM NaCl, 0.4 mM EDTA) was pre-incubated with indicated fragments for 1 h and methylation activity was monitored after addition of […] of recombinant histone 4 (NEB, M2504S) and ^3H-SAM (2 μCi). Reactions were further incubated for 60 min at ambient temperature and stopped with 4×SDS sample buffer. SDS-PAGE gels were fixed with 10% acetic acid/10% methanol (v/v), washed, and incubated with Amplify reagent (Amersham) before exposing to film at −80° C. for 3 days.

Where [2] appears, read: anti-CD3, anti-CD28 stimulation, 8 h.

Where a name gives a salt, the structure may show the parent alone.

T2 sequence (Q99873 11-371 limits assumed): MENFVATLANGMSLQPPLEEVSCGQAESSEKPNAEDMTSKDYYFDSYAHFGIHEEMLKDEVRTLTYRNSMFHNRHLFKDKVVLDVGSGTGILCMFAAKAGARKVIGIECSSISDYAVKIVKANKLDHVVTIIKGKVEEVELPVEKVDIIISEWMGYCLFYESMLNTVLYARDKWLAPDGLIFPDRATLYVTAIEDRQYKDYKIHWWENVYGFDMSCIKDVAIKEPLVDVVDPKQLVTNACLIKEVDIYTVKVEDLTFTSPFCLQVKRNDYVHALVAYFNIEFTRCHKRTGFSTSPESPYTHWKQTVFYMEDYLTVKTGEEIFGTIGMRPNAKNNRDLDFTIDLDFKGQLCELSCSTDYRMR
Sequence of IMPACT C195 (Q9P2X3) (Q9P2X3 whole entry, the tested form may be a part): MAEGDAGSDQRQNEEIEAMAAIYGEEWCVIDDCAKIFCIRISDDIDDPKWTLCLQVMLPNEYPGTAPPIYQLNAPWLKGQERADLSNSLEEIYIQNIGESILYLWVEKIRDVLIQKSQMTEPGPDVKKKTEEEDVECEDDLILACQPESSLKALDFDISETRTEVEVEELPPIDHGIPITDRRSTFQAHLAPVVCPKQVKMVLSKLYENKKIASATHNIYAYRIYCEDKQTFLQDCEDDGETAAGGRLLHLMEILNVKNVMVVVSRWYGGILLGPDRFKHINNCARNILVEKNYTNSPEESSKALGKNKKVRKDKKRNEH

On to `COc1ccc(C2CC(c3cccs3)=NN2C(=O)CCl)cc1` (stereo not drawn) [compound 4], for which the “isoTOP-ABPP reactivity profile (ratio) 4_100 μM_in-situ_231” value at IMPACT C195 (Q9P2X3) is recorded as 20.0.

With `COC(=O)/C=C/C(=O)OC` [DMF, dimethyl fumarate], in test [1], the “cellular GSH content” value is given as “significant decrease”. For the same compound, the entries for the “blockade of T cell activation” value with primary human T cells (10 μM), in the test with primary human T cells (25 μM) and in the test on primary human T cells (50 μM) were “marginal/negligible”, “partial” and “near-complete inhibition”, respectively. In addition, in the test with primary human T cells (setting [2]), the “expression of CD25” value is “blocked”. In the test with primary human T cells (setting [2]), the “expression of CD69” value was “blocked”. Further, the “inhibitory effect on T cell activation” value was “completely ablated” in the test on primary human T cells (drug added six hours after stimulation) and “reduced” in the test with primary human T cells (drug added two hours after stimulation).

As for `COc1ccc2c(c1)CCCN2C(=O)CCl` [compound 2], the “isoTOP-ABPP reactivity profile (ratio) 2_200 μM_in-situ_231” value on KDM4B C694 (O94953) and at SMAD2 C81 (Q15796) was 20.0 each time.

For `Cn1cc(S(=O)(=O)N2CCOCC2)cc1C(=O)NC(=O)CCl` [compound 11], the “PRMT1-catalyzed methylation of histone 4” value on PRMT1 was “inhibited”.
